Assay results taken from US4558127A, “5-Fluorouracil nitroxyl derivatives possessing antitumor activity” (priority 1984, dated 1985).

Legend:
Schwetz erythroleukosis = assay: Antitumor activity on grafted Schwetz erythroleukosis in rats; type: in vivo, rat; settings: mongrel rats, single dose 25 mg/kg i/p, days 7-14
Excerpt: (§1) For the determination of antitumor activity these compounds (I, II, III, IV), 5-fluorouracyl and Ftorafur were used in the same solvents as in the determination of toxicity.
(§2) The determination of antitumor activity was effected on grafted tumors of mice: leukemia L-1210, leukemia P-388, Leukemia La, melanoma B-16, adenocarcinoma 755 (Ca-755), as well as on grafted tumors of rats: Schwetz erythroleukosis, Walker carcinosarcoma (WCS), Geren carcinoma.
(§3) In the determination of the antitumor activity the test compounds were introduced in equitoxic doses. Ftorafur was also used in the optimal dose which is equal to […].
(§4) As the criterion of antitumor activity on solid tumors used is the inhibition (I) of the tumor volume gain in comparison with the control, expressed in percent and calculated by the formula: [formula] wherein Vc --average volume of the tumor in the control,
(§5) Vt --average volume of the tumor in the experiment.

[1] = background art; cited from earlier work
[2] = Toxicity (LD50), intraperitoneal administration, mongrel white mice, Burns method; type: in vivo, mouse; settings: mice; for LD50: mouse, in vivo, ip, intraperitoneal, I, II, III as emulsion in 10% aqueous Tween-80, IV, Ftorafur, 5-fluorouracyl as aqueous solutions; for less toxic than 5-fluorouracyl, fold: relative to 5-fluorouracyl
Excerpt: Toxicity of the compounds according to the present invention has been determined on mongrel white mice in experimental intraperitoneal administration of these compounds and evaluated by the Burns method (using curves of accumulation of the animal death frequencies vs. dose).
As the toxicity characteristic use was made of the dose causing death of 50% of the animals employed for the experiment (LD50).
For the determination of toxicity of (1,3-bis-(2,2,5,5-tetramethyl-1-oxyl-Δ^3 -pyrrolin-3-oyl)-5-fluorouracyl(compound I), 1-(2,2,5,5-tetramethyl-1-oxyl-Δ^3 -pyrrolin-3-oyl)-5-fluorouracyl (compound II) and 3-(2,2,5,5-tetramethyl-1-oxyl-Δ^3 -pyrrolin-3-oyl)-5-fluorouracyl (compound III), these compounds were administered intraperitoneally in the form of an emulsion in a 10% aqueous solution of polyoxyethylsorbitan monooleate (Tween-80, Ferak Berlin West Germany).
For the determination of toxicity of sodium salt of 3-(2,2,5,5-tetramethyl-1-oxyl-Δ^3 -pyrrolin-3-oyl)-5-fluorouracyl (compound IV), Ftorafur and 5-fluorouracyl, these compounds were also administered intraperitoneally in the form of aqueous solutions.

melanoma B-16 = assay: Antitumor activity on grafted melanoma B-16 in mice (inhibition of tumor volume gain); type: in vivo, mouse; settings: for Inhibition of tumor volume gain: B-16, CBAF1 mice, days 1-10
Excerpt: as §1, §2, §3, §4, §5

leukemia La = assay: Antitumor activity on grafted leukemia La in mice (ELS, kinetic criterion, chemotherapeutic index); type: in vivo, mouse; settings: for ELS (extension of average life span) / kinetic criterion (.chi.) = 1-.phi.t/.phi.c / Chemotherapeutic index I40 = LD10/ED40: La, C57Bl mice; for Chemotherapeutic index I40 = LD10/ED40: i/p
Excerpt: as §1, §2
Leukemia La was grafted intraperitoneally using a suspension of leukemic cells in a physiological solution. The inoculum contained 10^8 of leukemia cells. […]
In the determination of the antitumor activity the test compounds were introduced in equitoxic doses.
The criterion of the antitumor activity for leukemia P-338, L-1210 and La is the extension of an average life span (ELS) of the test animals as compared to the control ones, expressed in percent and calculated by the formula: [formula] wherein Lt --life span of animals in the test group;
Lc --life span of animals in the control group, i.e. without administration of the test compounds.
The comparative assessment of the scope of therapeutic action is effected using chemotherapeutic indices I40, I60 and I100 : I40 =LD10 /ED40, I60 =LD10 /ED60 I100 =LD10 /ED100, where LD10 =dose causing death of 10% of the animals; ED40, ED60 and ED100 are effective doses causing extension of the animal's life span by 40, 60 and 100 percent respectively.

Solubility = type: physicochemical; settings: for solubility in organic solvents: alcohols, acetone, acetonitrile, dimethylformamide, dimethylsulphoxide; for solubility in aqueous alkalis or buffer solutions: pH above 10
[3] = Stability against hydrolysis; type: physicochemical
[4] = single dose 75 mg/kg i/p, days 1-7 after grafting
[5] = single dose 75 mg/kg i/p, days 1-7 after grafting, control life span 6,5 days
[6] = leukemia La, relative to Ftorafur

Row | SMILES | LD50 [2] [mg/kg] | less toxic than 5-fluorouracyl, fold ([2]; i/p) [times] | Chemotherapeutic index I40 = LD10/ED40 (leukemia La; days 1-7) | kinetic criterion (.chi.) = 1-.phi.t/.phi.c (leukemia La; [4]) | ELS (extension of average life span) (leukemia La; [5]) [%] | kinetic criterion compared with Ftorafur, in words (leukemia La; leukemia La) | therapeutic effect compared with 5-fluorouracyl, in words (leukemia La; leukemia La) | effectiveness relative to Ftorafur as regards ELS, fold (leukemia La; [6]) [times] | solubility in organic solvents (Solubility) | solubility in water (Solubility) | solubility in aqueous alkalis or buffer solutions (Solubility) | other results
1 | O=c1[nH]cc(F)c(=O)[nH]1 [5-fluorouracyl, reference compound] | 100 | – | – | – | – | – | – | – | – | – | – | Inhibition of tumor volume gain (Schwetz erythroleukosis): 15%; toxicity / side effects in words [1]: highly toxic, it strongly affects the function of bone marrow and gastro-intestinal tract; Inhibition of tumor volume gain (melanoma B-16; single dose 25 mg/kg i/p): 0%; activity on melanoma B-16, in words (melanoma B-16; mouse, in vivo): shows no activity; ELS (extension of average life span) (leukemia La; single dose 25 mg/kg i/p, days 1-7, control life span 6.5 days): 57%; kinetic criterion (.chi.) = 1-.phi.t/.phi.c (leukemia La; single dose 35 mg/kg i/p, days 1,3,5,7): 0.67; ELS (extension of average life span) (leukemia La; single dose 35 mg/kg i/p, days 1,3,5,7, control life span 6,5 days): 57%; Chemotherapeutic index I60 = LD10/ED60 (leukemia La; mouse, in vivo, ip): 3.6
2 | CC1(C)C=C(C(=O)n2cc(F)c(=O)n(C(=O)C3=CC(C)(C)N([O])C3(C)C)c2=O)C(C)(C)N1[O] [I, 1,3-bis-(2,2,5,5-tetramethyl-1-oxyl-Δ^3-pyrrolin-3-oyl)-5-fluorouracyl] | 350 | 3.5 | 4,0 | 0,1 | 30 | close values | close to 5-fluorouracyl | 2 | wellsoluble | sparingly soluble in water | – | Inhibition of tumor volume gain (melanoma B-16; single dose 75 mg/kg i/p): 15%
3 | CC1(C)C=C(C(=O)n2cc(F)c(=O)[nH]c2=O)C(C)(C)N1[O] [II, 1-(2,2,5,5-tetramethyl-1-oxyl-Δ^3 pyrrolin-3-oyl)-5-fluorouracyl] | 150 | – | 2,0 | 0.5 | 45 | – | similar, in these characteristics, to 5-fluorouracyl | 3 | wellsoluble | sparingly soluble in water | well soluble | hydrolysis in aqueous solutions of alkalis ([3]; to fluorouracyl and 2,2,5,5-tetramethyl-1-oxyl-Δ^3 -pyrrolin-3-carboxylic acid, rate increases with increasing pH): rapidly hydrolyzed; toxicity compared with 5-fluorouracyl, in words ([2]; i/p): substantially similar to that of 5-fluorouracyl; effectiveness relative to Ftorafur as regards kinetic criterion, fold (leukemia La; [6]): 3 times
4 | CC1(C)C=C(C(=O)n2c(=O)[nH]cc(F)c2=O)C(C)(C)N1[O] [III, 3-(2,2,5,5-tetramethyl-1-oxyl-Δ^3-pyrrolin-3-oyl)-5-fluororacyl] | 550 | 5 | 7,8 | – | – | close values | close to 5-fluorouracyl | 2 | wellsoluble | sparingly soluble in water | well soluble | stability against hydrolysis ([3]; room temperature, pH 3 to 11, about 5 hours): do not undergo any noticeable hydrolytical decomposition; toxicity compared with Ftorafur, in words ([2]; i/p): approach toxicity of Ftorafur; kinetic criterion (.chi.) = 1-.phi.t/.phi.c (leukemia La; single dose 65 mg/kg i/p, days 1-7): 0,2; ELS (extension of average life span) (leukemia La; single dose 65 mg/kg i/p, days 1-7, control life span 6,5 days): 40%
